Data reported in ChEMBL document CHEMBL1201862, “PubChem BioAssay data set” (2004).
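Interpolation was linear, between the two tested concentrations surrounding the appropriate level; five concentrations were tested over 48 hours in 96-well plates. The concentration for 50% growth inhibition is given as GI50.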 Calls of active or inactive are those of the source. Cut-off read from the data, not from the text of the source: active = GI50 up to about 1.1 µM and inactive = higher.

What was measured:
Assay in all cases: inhibition of tumour cell growth, NCI panel, 48 h
[1] = test system: RXF 393
[2] = test system: SR
[3] = test system: EKVX
[4] = test system: NCI/ADR-RES
[5] = test system: UACC-62
[6] = test system: MCF7
[7] = test system: NCI-H460
[8] = test system: COLO 205
[9] = test system: IGROV-1
[10] = test system: A498
[11] = test system: U-251
[12] = test system: OVCAR-4
[13] = test system: PC-3
[14] = test system: HCT-15
[15] = test system: Malme-3M
[16] = test system: A549
[17] = test system: MDA-N
[18] = test system: OVCAR-5
[19] = test system: NCI-H522
[20] = test system: K562

| SMILES | GI50 [1] | GI50 [2] | GI50 [3] | GI50 [4] | GI50 [5] | GI50 [6] | GI50 [7] | GI50 [8] | GI50 [9] | GI50 [10] | GI50 [11] | GI50 [12] | GI50 [13] | GI50 [14] | GI50 [15] | GI50 [16] | GI50 [17] | GI50 [18] | GI50 [19] | GI50 [20] |
| --- | --- | --- | --- | --- | --- | --- | --- | --- | --- | --- | --- | --- | --- | --- | --- | --- | --- | --- | --- | --- |
| CC(=O)Nc1ccc(-c2nc3ccccc3s2)cc1C | 44.7 µM (inactive) | 27.7 µM (inactive) | 25.1 µM (inactive) | 42.2 µM (inactive) | 47.1 µM (inactive) | 33.5 µM (inactive) | 78.2 µM (inactive) | 45 µM (inactive) | 38.6 µM (inactive) | 2.9 µM (inactive) | 71.6 µM (inactive) | 42.5 µM (inactive) | 29 µM (inactive) | > 100 µM |  |  |  |  |  |  |
| Cc1csc2nc(-c3ccc(Cl)c([N+](=O)[O-])c3)c(/C=N/NC(=N)N)n12 | 1.63 µM (inactive) |  | 1.49 µM (inactive) | 2.21 µM (inactive) | 1.72 µM (inactive) | 1.26 µM (inactive) | 1.78 µM (inactive) | 1.15 µM (inactive) |  | 1.51 µM (inactive) | 1.5 µM (inactive) | 1.64 µM (inactive) | 1.48 µM (inactive) | 1.66 µM | 1.9 µM (inactive) | 1.83 µM (inactive) | 1.32 µM (inactive) | 1.21 µM (inactive) |  |  |
| O=c1[nH]ncc2[nH]c3c(c12)CCc1ccccc1-3 | 16.6 µM (inactive) | 19.1 µM (inactive) | 2.22 µM (inactive) | 40.4 µM (inactive) |  |  | 28.2 µM (inactive) | 13.2 µM (inactive) | 14.7 µM (inactive) | 27.7 µM (inactive) | 31.6 µM (inactive) | 32.1 µM (inactive) | 27.2 µM (inactive) | 30.8 µM | 32.9 µM (inactive) | 29 µM (inactive) |  | 44.3 µM (inactive) | 21.5 µM (inactive) | 28.9 µM (inactive) |
| Cn1c(=O)c2ccccc2c2ccccc21 | 40.6 µM (inactive) |  | 18.8 µM (inactive) | 37 µM (inactive) | 39.8 µM (inactive) | 31.5 µM (inactive) | 29.3 µM (inactive) | 34.3 µM (inactive) |  | 30.8 µM (inactive) | 57.1 µM (inactive) | 66.7 µM (inactive) | 71.6 µM (inactive) | 40 µM | 46 µM (inactive) | 53.8 µM (inactive) | 47.8 µM (inactive) |  | 36.6 µM (inactive) |  |
| O=C(c1c(O)cc(O)cc1O)C1Cc2ccccc21 (configuration not stated) | 76 µM (inactive) | > 100 µM (inactive) |  |  | > 100 µM (inactive) |  | 82.4 µM (inactive) | > 100 µM (inactive) | > 100 µM (inactive) | > 100 µM (inactive) | 47.2 µM (inactive) | 30.4 µM (inactive) |  | > 100 µM | > 100 µM (inactive) | 91.6 µM (inactive) |  | > 100 µM (inactive) | 10.3 µM (inactive) | 68.1 µM (inactive) |
| CN1C(=O)C(c2c[nH]c3ccccc23)N(C)C(=O)C1c1c[nH]c2ccccc12 (configuration not stated) | 46.9 µM (inactive) |  | > 100 µM (inactive) | > 100 µM (inactive) | > 100 µM (inactive) | > 100 µM (inactive) | > 100 µM (inactive) | > 100 µM (inactive) | > 100 µM (inactive) |  | > 100 µM (inactive) | > 100 µM (inactive) | > 100 µM (inactive) | > 100 µM | > 100 µM (inactive) | > 100 µM (inactive) | > 100 µM (inactive) | > 100 µM (inactive) | > 100 µM (inactive) | > 100 µM (inactive) |
| COC(=O)CC1C(COC(C)=O)OC(n2cc(C)c(=O)[nH]c2=O)C1OC(C)=O (configuration not stated) | > 100 µM (inactive) |  | > 100 µM (inactive) | > 100 µM (inactive) | > 100 µM (inactive) | > 100 µM (inactive) | > 100 µM (inactive) | > 100 µM (inactive) | > 100 µM (inactive) | > 100 µM (inactive) | > 100 µM (inactive) | > 100 µM (inactive) | > 100 µM (inactive) | > 100 µM | > 100 µM (inactive) | > 100 µM (inactive) | > 100 µM (inactive) | > 100 µM (inactive) | > 100 µM (inactive) |  |
| C=CCOCn1ccc(=O)[nH]c1=O |  | > 100 µM (inactive) | > 100 µM (inactive) |  | > 100 µM (inactive) | > 100 µM (inactive) | > 100 µM (inactive) | > 100 µM (inactive) | > 100 µM (inactive) | > 100 µM (inactive) |  |  | > 100 µM (inactive) | > 100 µM | 94.4 µM (inactive) | > 100 µM (inactive) | > 100 µM (inactive) |  | > 100 µM (inactive) | > 100 µM (inactive) |
| COc1ccc(C(=O)/C=C/c2ccc3c(c2)OCO3)c(OCc2ccccc2)c1 | 11 µM (inactive) | 3.24 µM (inactive) | 29.8 µM (inactive) |  | 17.4 µM (inactive) | 6.22 µM (inactive) | 8.22 µM (inactive) | > 75.5 µM (inactive) | 17.7 µM (inactive) | > 84.9 µM (inactive) | > 57.5 µM (inactive) | 15.1 µM (inactive) | 11.6 µM (inactive) | 5.08 µM | > 100 µM (inactive) | 47.3 µM (inactive) | 11.7 µM (inactive) | > 76.7 µM (inactive) | 9.68 µM (inactive) | 12.5 µM (inactive) |
| COc1ccc(/C=C/c2cnnc3ccccc23)cc1OC | > 10 µM (inactive) |  | > 10 µM (inactive) | > 10 µM (inactive) | > 10 µM (inactive) | > 10 µM (inactive) | > 10 µM (inactive) | > 10 µM (inactive) | > 10 µM (inactive) | > 10 µM (inactive) | > 10 µM (inactive) | > 10 µM (inactive) | > 10 µM (inactive) | > 10 µM | > 10 µM (inactive) | > 10 µM (inactive) | > 10 µM (inactive) | > 10 µM (inactive) | > 10 µM (inactive) | > 10 µM (inactive) |
| O=C(Cc1nc2ccccc2s1)Nc1ccc(Cl)cc1 | > 100 µM (inactive) | > 100 µM (inactive) | > 100 µM (inactive) |  | 82.2 µM (inactive) |  | > 100 µM (inactive) | > 100 µM (inactive) | > 100 µM (inactive) | > 100 µM (inactive) | > 100 µM (inactive) | > 100 µM (inactive) |  |  | > 100 µM (inactive) | 97.9 µM (inactive) |  | > 100 µM (inactive) | > 100 µM (inactive) | 38.9 µM (inactive) |
| Oc1c(Cl)c(Cl)c(O)c(CCNc2ccc3ncccc3c2)c1Cl | 18.9 µM (inactive) | 3.14 µM (inactive) | 16.7 µM (inactive) | 12.2 µM (inactive) | 10.9 µM (inactive) | 4.76 µM (inactive) | 18.9 µM (inactive) | 6.55 µM (inactive) | 5 µM (inactive) |  | 8.87 µM (inactive) | 79.6 µM (inactive) | 28 µM (inactive) | 14.9 µM | 18.6 µM (inactive) | 17.2 µM (inactive) |  | 20.9 µM (inactive) | 2.17 µM (inactive) | 3.47 µM (inactive) |
| C[N+](C)(C)CCC(=O)N1C/C(=C\c2ccccc2)C(=O)/C(=C/c2ccccc2)C1 | 11.8 µM (inactive) |  | 21.4 µM (inactive) | 1.64 µM (inactive) | 3.58 µM (inactive) | 1.45 µM (inactive) | 7.87 µM (inactive) | 3.47 µM (inactive) | 5.12 µM (inactive) | 20.7 µM (inactive) | 3.03 µM (inactive) | 3.37 µM (inactive) | 2.49 µM (inactive) | 2.47 µM | 15.4 µM (inactive) | 14.7 µM (inactive) | 1.9 µM (inactive) | 16.9 µM (inactive) | 2.25 µM (inactive) | 1.21 µM (inactive) |
| N#COc1ccc(Oc2ccccc2)cc1 | > 100 µM (inactive) | 24.3 µM (inactive) | > 100 µM (inactive) |  | 31.5 µM (inactive) |  | 43.2 µM (inactive) | 64 µM (inactive) | 68.4 µM (inactive) | > 100 µM (inactive) | 42.7 µM (inactive) | > 100 µM (inactive) |  | 57.7 µM | > 100 µM (inactive) | 73.3 µM (inactive) |  | > 100 µM (inactive) | 34.7 µM (inactive) | 48.4 µM (inactive) |
| CN(C)c1ccc2c(SCC(=O)OCC(=O)[C@@]3(O)CC[C@H]4[C@@H]5CCC6=CC(=O)C=C[C@]6(C)[C@H]5C(=O)C[C@@]43C)c3ccc(N(C)C)cc3nc2c1 | 32.7 µM (inactive) | 1.35 µM (inactive) | 18.1 µM (inactive) |  | 10.8 µM (inactive) | 7.03 µM (inactive) | 3.24 µM (inactive) | 5.79 µM (inactive) | 6.52 µM (inactive) | > 54.3 µM (inactive) | 15 µM (inactive) | 10.9 µM (inactive) | 20.8 µM (inactive) | 3.3 µM | > 100 µM (inactive) | 15.2 µM (inactive) | 14.4 µM (inactive) | 32.1 µM (inactive) | 21.8 µM (inactive) | 2.64 µM (inactive) |
| O=S(=O)(N/C(=N\O)Nc1ccc(Cl)cc1)c1ccc(S(=O)(=O)c2ccccc2)s1 | 24 µM (inactive) |  | 18.8 µM (inactive) | 27.5 µM (inactive) | 14.9 µM (inactive) | 27 µM (inactive) | 14.4 µM (inactive) | 15.7 µM (inactive) | 15.2 µM (inactive) | 15.5 µM (inactive) | 20.8 µM (inactive) | 14.1 µM (inactive) | 25.9 µM (inactive) | 28.1 µM | 19.4 µM (inactive) | 28.6 µM (inactive) |  | 24.3 µM (inactive) | 16.9 µM (inactive) | 16.6 µM (inactive) |
